Results reported in ChEMBL document CHEMBL1275577, “Study of the in vitro activities of rifaximin and comparator agents against 536 anaerobic intestinal bacteria from the perspective of potential utility in pathology involving bowel flora” (Antimicrob Agents Chemother, 2009).
In brackets after ≈: the same amount, converted by molar mass.

What was measured:
Assay type in all cases: functional
[1] = system: Fusobacterium nucleatum; test: Antimicrobial activity against Fusobacterium nucleatum by Wadsworth agar dilution method
[2] = system: Propionibacterium propionicum; test: Antimicrobial activity against Propionibacterium propionicum by Wadsworth agar dilution method; conditions: Arachnia propionica
[3] = system: Ruminococcus obeum; test: Antimicrobial activity against Ruminococcus obeum by Wadsworth agar dilution method; conditions: Blautia obeum
[4] = system: Fusobacterium necrophorum; test: Antimicrobial activity against Fusobacterium necrophorum by Wadsworth agar dilution method
[5] = system: Propionibacterium avidum; test: Antimicrobial activity against Propionibacterium avidum by Wadsworth agar dilution method; conditions: Cutibacterium avidum
[6] = system: Clostridium nexile; test: Antimicrobial activity against Clostridium nexile by Wadsworth agar dilution method; conditions: Faecalimonas nexilis
[7] = system: Prevotella bivia; test: Antimicrobial activity against Prevotella bivia by Wadsworth agar dilution method
[8] = system: Clostridium bartlettii; test: Antimicrobial activity against Clostridium bartlettii by Wadsworth agar dilution method; conditions: Intestinibacter bartlettii
[9] = system: Bifidobacterium bifidum; test: Antimicrobial activity against Bifidobacterium bifidum by Wadsworth agar dilution method
[10] = system: Parabacteroides merdae; test: Antimicrobial activity against Parabacteroides merdae by Wadsworth agar dilution method
[11] = system: Clostridium leptum; test: Antimicrobial activity against Clostridium leptum by Wadsworth agar dilution method
[12] = system: Clostridium symbiosum; test: Antimicrobial activity against Clostridium symbiosum by Wadsworth agar dilution method
[13] = system: Fusobacterium sp.; test: Antimicrobial activity against Fusobacterium sp. by Wadsworth agar dilution method
[14] = system: Schaalia odontolytica; test: Antimicrobial activity against Actinomyces odontolyticus by Wadsworth agar dilution method
[15] = system: Lactobacillus jensenii; test: Antimicrobial activity against Lactobacillus jensenii by Wadsworth agar dilution method
[16] = system: Flavonifractor plautii; test: Antimicrobial activity against Clostridium orbiscindens by Wadsworth agar dilution method
[17] = system: Bifidobacterium dentium; test: Antimicrobial activity against Bifidobacterium dentium by Wadsworth agar dilution method
[18] = system: Clostridium cadaveris; test: Antimicrobial activity against Clostridium cadaveris by Wadsworth agar dilution method
[19] = system: Enterocloster clostridioformis; test: Antimicrobial activity against Clostridium clostridioforme by Wadsworth agar dilution method
[20] = system: Clostridium bolteae; test: Antimicrobial activity against Clostridium bolteae by Wadsworth agar dilution method; conditions: Enterocloster bolteae

CC(=O)Oc1ccccc1C(=O)Nc1ncc([N+](=O)[O-])s1 [NITAZOXANIDE]
MIC [1]: 0.25 µg/mL (≈ 0.814 µM)
MIC50 [1]: 0.25 µg/mL (≈ 0.814 µM)
MIC90 [1]: 0.5 µg/mL (≈ 1.63 µM)
MIC50 [2]: 2 µg/mL (≈ 6.51 µM)
MIC90 [2]: 32 µg/mL (≈ 104 µM)
MIC50 [3]: 0.5 µg/mL (≈ 1.63 µM)
MIC90 [3]: 1 µg/mL (≈ 3.25 µM)
MIC50 [4]: 1 µg/mL (≈ 3.25 µM)
MIC90 [4]: 8 µg/mL (≈ 26 µM)
MIC50 [5]: 2 µg/mL (≈ 6.51 µM)
MIC90 [5]: 32 µg/mL (≈ 104 µM)
MIC50 [6]: 0.5 µg/mL (≈ 1.63 µM)
MIC90 [6]: 4 µg/mL (≈ 13 µM)
MIC50 [7]: 4 µg/mL (≈ 13 µM)
MIC90 [7]: 8 µg/mL (≈ 26 µM)
MIC50 [8]: 0.5 µg/mL (≈ 1.63 µM)
MIC90 [8]: 4 µg/mL (≈ 13 µM)
MIC50 [9]: 2 µg/mL (≈ 6.51 µM)
MIC90 [9]: 32 µg/mL (≈ 104 µM)
MIC50 [10]: 4 µg/mL (≈ 13 µM)
MIC90 [10]: 4 µg/mL (≈ 13 µM)
MIC50 [11]: 0.5 µg/mL (≈ 1.63 µM)
MIC90 [11]: 4 µg/mL (≈ 13 µM)
MIC50 [12]: 0.5 µg/mL (≈ 1.63 µM)
MIC90 [12]: 4 µg/mL (≈ 13 µM)
MIC50 [13]: 1 µg/mL (≈ 3.25 µM)
MIC90 [13]: 8 µg/mL (≈ 26 µM)
MIC50 [14]: 2 µg/mL (≈ 6.51 µM)
MIC90 [14]: 32 µg/mL (≈ 104 µM)
MIC50 [15]: 2 µg/mL (≈ 6.51 µM)
MIC90 [15]: 32 µg/mL (≈ 104 µM)
MIC [16]: 0.25 µg/mL (≈ 0.814 µM)
MIC50 [16]: 0.25 µg/mL (≈ 0.814 µM)
MIC90 [16]: 0.5 µg/mL (≈ 1.63 µM)
MIC50 [17]: 2 µg/mL (≈ 6.51 µM)
MIC90 [17]: 32 µg/mL (≈ 104 µM)
MIC50 [18]: 0.5 µg/mL (≈ 1.63 µM)
MIC90 [18]: 4 µg/mL (≈ 13 µM)
MIC50 [19]: 0.25 µg/mL (≈ 0.814 µM)
MIC90 [19]: 0.25 µg/mL (≈ 0.814 µM)
MIC50 [20]: 0.5 µg/mL (≈ 1.63 µM)
MIC90 [20]: 4 µg/mL (≈ 13 µM)

CO[C@H]1/C=C/O[C@@]2(C)Oc3c(C)c(O)c4c(O)c(c5c(nc6cc(C)ccn65)c4c3C2=O)NC(=O)/C(C)=C\C=C\[C@H](C)[C@H](O)[C@@H](C)[C@@H](O)[C@@H](C)[C@H](OC(C)=O)[C@@H]1C [RIFAXIMIN]
MIC50 [1]: 2 µg/mL (≈ 2.54 µM)
MIC90 [1]: 8 µg/mL (≈ 10.2 µM)
MIC50 [2]: 0.5 µg/mL (≈ 0.636 µM)
MIC90 [2]: > 1020 µg/mL
MIC [3]: 0.25 µg/mL (≈ 0.318 µM)
MIC50 [3]: 0.25 µg/mL (≈ 0.318 µM)
MIC90 [3]: 4 µg/mL (≈ 5.09 µM)
MIC50 [4]: 16 µg/mL (≈ 20.4 µM)
MIC90 [4]: > 1020 µg/mL
MIC50 [5]: 0.5 µg/mL (≈ 0.636 µM)
MIC90 [5]: > 1020 µg/mL
MIC [6]: 0.25 µg/mL (≈ 0.318 µM)
MIC50 [6]: 0.25 µg/mL (≈ 0.318 µM)
MIC90 [6]: > 1020 µg/mL
MIC [7]: 0.25 µg/mL (≈ 0.318 µM)
MIC50 [7]: 0.25 µg/mL (≈ 0.318 µM)
MIC90 [7]: 0.5 µg/mL (≈ 0.636 µM)
MIC [8]: 0.25 µg/mL (≈ 0.318 µM)
MIC50 [8]: 0.25 µg/mL (≈ 0.318 µM)
MIC90 [8]: > 1020 µg/mL
MIC50 [9]: 0.5 µg/mL (≈ 0.636 µM)
MIC90 [9]: > 1020 µg/mL
MIC [10]: 0.25 µg/mL (≈ 0.318 µM)
MIC50 [10]: 0.25 µg/mL (≈ 0.318 µM)
MIC90 [10]: 1 µg/mL (≈ 1.27 µM)
MIC [11]: 0.25 µg/mL (≈ 0.318 µM)
MIC50 [11]: 0.25 µg/mL (≈ 0.318 µM)
MIC90 [11]: > 1020 µg/mL
MIC [12]: 0.25 µg/mL (≈ 0.318 µM)
MIC50 [12]: 0.25 µg/mL (≈ 0.318 µM)
MIC90 [12]: > 1020 µg/mL
MIC50 [13]: 16 µg/mL (≈ 20.4 µM)
MIC90 [13]: > 1020 µg/mL
MIC50 [14]: 0.5 µg/mL (≈ 0.636 µM)
MIC90 [14]: > 1020 µg/mL
MIC50 [15]: 0.5 µg/mL (≈ 0.636 µM)
MIC90 [15]: > 1020 µg/mL
MIC50 [16]: > 1020 µg/mL
MIC90 [16]: > 1020 µg/mL
MIC50 [17]: 0.5 µg/mL (≈ 0.636 µM)
MIC90 [17]: > 1020 µg/mL
MIC [18]: 0.25 µg/mL (≈ 0.318 µM)
MIC50 [18]: 0.25 µg/mL (≈ 0.318 µM)
MIC90 [18]: > 1020 µg/mL
MIC50 [19]: 0.25 µg/mL (≈ 0.318 µM)
MIC90 [19]: 0.25 µg/mL (≈ 0.318 µM)
MIC [20]: 0.25 µg/mL (≈ 0.318 µM)
MIC50 [20]: 0.25 µg/mL (≈ 0.318 µM)
MIC90 [20]: > 1020 µg/mL

CN[C@H](CC(C)C)C(=O)N[C@H]1C(=O)N[C@@H](CC(N)=O)C(=O)N[C@H]2C(=O)N[C@H]3C(=O)N[C@H](C(=O)N[C@H](C(=O)O)c4cc(O)cc(O)c4-c4cc3ccc4O)[C@H](O)c3ccc(c(Cl)c3)Oc3cc2cc(c3O[C@@H]2O[C@H](CO)[C@@H](O)[C@H](O)[C@H]2O[C@H]2C[C@](C)(N)[C@H](O)[C@H](C)O2)Oc2ccc(cc2Cl)[C@H]1O [VANCOMYCIN]
MIC50 [1]: 256 µg/mL (≈ 177 µM)
MIC90 [1]: 512 µg/mL (≈ 353 µM)
MIC50 [2]: 1 µg/mL (≈ 0.69 µM)
MIC90 [2]: 64 µg/mL (≈ 44.2 µM)
MIC50 [3]: 0.5 µg/mL (≈ 0.345 µM)
MIC90 [3]: 1 µg/mL (≈ 0.69 µM)
MIC50 [4]: 256 µg/mL (≈ 177 µM)
MIC90 [4]: > 1020 µg/mL
MIC50 [5]: 1 µg/mL (≈ 0.69 µM)
MIC90 [5]: 64 µg/mL (≈ 44.2 µM)
MIC50 [6]: 1 µg/mL (≈ 0.69 µM)
MIC90 [6]: 4 µg/mL (≈ 2.76 µM)
MIC50 [7]: 128 µg/mL (≈ 88.3 µM)
MIC90 [7]: 256 µg/mL (≈ 177 µM)
MIC50 [8]: 1 µg/mL (≈ 0.69 µM)
MIC90 [8]: 4 µg/mL (≈ 2.76 µM)
MIC50 [9]: 1 µg/mL (≈ 0.69 µM)
MIC90 [9]: 64 µg/mL (≈ 44.2 µM)
MIC50 [10]: 128 µg/mL (≈ 88.3 µM)
MIC90 [10]: 128 µg/mL (≈ 88.3 µM)
MIC50 [11]: 1 µg/mL (≈ 0.69 µM)
MIC90 [11]: 4 µg/mL (≈ 2.76 µM)
MIC50 [12]: 1 µg/mL (≈ 0.69 µM)
MIC90 [12]: 4 µg/mL (≈ 2.76 µM)
MIC50 [13]: 256 µg/mL (≈ 177 µM)
MIC90 [13]: > 1020 µg/mL
MIC50 [14]: 1 µg/mL (≈ 0.69 µM)
MIC90 [14]: 64 µg/mL (≈ 44.2 µM)
MIC50 [15]: 1 µg/mL (≈ 0.69 µM)
MIC90 [15]: 64 µg/mL (≈ 44.2 µM)
MIC50 [16]: 8 µg/mL (≈ 5.52 µM)
MIC90 [16]: 8 µg/mL (≈ 5.52 µM)
MIC50 [17]: 1 µg/mL (≈ 0.69 µM)
MIC90 [17]: 64 µg/mL (≈ 44.2 µM)
MIC50 [18]: 1 µg/mL (≈ 0.69 µM)
MIC90 [18]: 4 µg/mL (≈ 2.76 µM)
MIC50 [19]: 2 µg/mL (≈ 1.38 µM)
MIC90 [19]: 2 µg/mL (≈ 1.38 µM)
MIC50 [20]: 1 µg/mL (≈ 0.69 µM)
MIC90 [20]: 4 µg/mL (≈ 2.76 µM)
